# Test results reported in patent publication US12037339B2, “Substituted imidazoles as GLP-1 receptor agonists” (Eccogene Inc., priority 2020, dated 2024).
# Molecular target: (Homo sapiens, UniProt P43220)
# Assay: h-GLP-1 activity assay (cAMP HTRF, HEK293 cells with stable expression of human GLP-1)
# Type: cell-based
# Conditions: relative EC50, 10 nM human GLP-1 set as 100% response, 30 min at 37° C.
# Description: Human GLP-1 agonizing activity was detected in HEK293 cells with stable expression of human GLP-1 by Cisbio cAMP Gs dynamic kit (Catalog #62AM4PEC) according to manufacturer's protocol. Briefly, cells were collected and resuspended in assay buffer containing 0.1% BSA and 0.5 mM of IBMX at concentration to 2.5×10^5 cells/mL. Two μL 5× compound solution and 8 μL cell suspension were added to each well of low-volume 384 white assay plate. After 30 min incubation at 37° C., 5 μL cAMP-d2 working solution and 5 μL anti-cAMP antibody-cryptate were added to each well, and incubate at room temperature for 1 hr. Series dilution of cAMP was used as standard. Human GLP-1 (7-37) was used as positive control and 10 nM human GLP-1 was set as 100% response. HTRF signals were read at 665 and 615 nm with EnVision plate reader and calculated cAMP concentration by interpolation to the standard curve. The EC50 value of the tested compounds was calculated by fitting the dose response curve using a 4-parameter non-linear regression routine and relative EC50 was presented in Table 29.
# Chain of (Homo sapiens, UniProt P43220) (P43220 24-463): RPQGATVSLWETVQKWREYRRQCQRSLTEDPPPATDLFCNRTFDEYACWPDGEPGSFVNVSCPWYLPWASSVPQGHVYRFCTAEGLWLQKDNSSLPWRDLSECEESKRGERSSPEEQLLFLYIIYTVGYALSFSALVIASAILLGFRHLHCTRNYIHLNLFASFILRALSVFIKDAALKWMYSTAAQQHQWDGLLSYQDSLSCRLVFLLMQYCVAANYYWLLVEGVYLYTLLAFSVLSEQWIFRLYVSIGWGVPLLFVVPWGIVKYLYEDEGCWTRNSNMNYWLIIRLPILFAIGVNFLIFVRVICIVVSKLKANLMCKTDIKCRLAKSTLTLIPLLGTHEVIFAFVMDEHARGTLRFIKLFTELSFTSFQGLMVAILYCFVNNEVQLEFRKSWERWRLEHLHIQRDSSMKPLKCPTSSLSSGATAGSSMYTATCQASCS
row,Structure (SMILES),EC50 [nM]
1,"CC1c2c(-n3ccn(-c4ccc5c(cnn5C)c4F)c3=O)c(-c3ccc(F)cc3)nn2CCN1C(=O)c1cn2cc(C3CCOCC3)ccc2c1C1(c2noc(=O)[nH]2)CC1 (racemic) [Compound 23, 3-(1-(2-(3-(3-(4-fluoro-1-methyl-1H-indazol-5-yl)-2-oxo-2,3-dihydro-1H-imidazol-1-yl)-2-(4-fluorophenyl)-4-methyl-4,5,6,7-tetrahydropyrazolo[1,5-a]pyrazine-5-carbonyl)-6-(tetrahydro-2H-pyran-4-yl)indolizin-1-yl)cyclopropyl)-1,2,4-oxadiazol-5(4H)-one]",20 to 100
2,"C[C@H]1c2c(nn(-c3ccc(F)c(C4CC4)c3)c2-n2ccn(-c3ccc4c(cnn4C)c3F)c2=O)CCN1C(=O)c1nn2cc(C3CCOC(C)(C)C3)cnc2c1C1(c2noc(=O)[nH]2)CC1 (mixture of isomers) [Compound 103, 3-(1-(2-((S)-2-(3-cyclopropyl-4-fluorophenyl)-3-(3-(4-fluoro-1-methyl-1H-indazol-5-yl)-2-oxo-2,3-dihydro-1H-imidazol-1-yl)-4-methyl-4,5,6,7-tetrahydro-2H-pyrazolo[4,3-c]pyridine-5-carbonyl)-6-(2,2-dimethyltetrahydro-2H-pyran-4-yl)pyrazolo[1,5-a]pyrimidin-3-yl)cyclopropyl)-1,2,4-oxadiazol-5(4H)-one]",< 20
3,"Cc1cc(-n2nc3c(c2-n2ccn(-c4ccc5c(cnn5C)c4F)c2=O)[C@H](C)N(C(=O)c2cn4cc([C@@H]5CCOC(C)(C)C5)ccc4c2[C@@]2(c4noc(=O)[nH]4)C[C@@H]2C)CC3)cc(C)c1F (single isomer, unassigned) [Compound 3]",< 20
4,"Cc1cc(-n2nc3c(c2-n2ccn(-c4ccc5c(cnn5C)c4F)c2=O)[C@H](C)N(C(=O)c2cn4cc([C@H]5CCOC(C)(C)C5)ccc4c2[C@@]2(c4noc(=O)[nH]4)C[C@@H]2C)CC3)cc(C)c1F (single isomer, unassigned) [Compound 4]",20 to 100
5,"Cc1cc(-n2nc3c(c2-n2ccn(-c4ccc5c(cnn5C)c4F)c2=O)[C@H](C)N(C(=O)c2cn4cc([C@H]5CCOC(C)(C)C5)ccc4c2[C@]2(c4noc(=O)[nH]4)C[C@@H]2C)CC3)cc(C)c1F (single isomer, unassigned) [Compound 5]",< 20
6,"Cc1cc(-c2ccc3c(c2)cc(C(=O)N2CCn4nc(-c5ccc(F)cc5)c(-n5ccn(-c6ccc7c(cnn7C)c6F)c5=O)c4[C@@H]2C)n3C2(c3noc(=O)[nH]3)CC2)ccn1 (single isomer, unassigned) [Compound 7]",< 20
7,"C[C@H]1c2c(nn(-c3ccc(C(F)(F)F)cc3)c2-n2ccn(-c3ccc4c(cnn4C)c3F)c2=O)CCN1C(=O)c1cn2cc([C@@H]3CCOC(C)(C)C3)ccc2c1C1(c2noc(=O)[nH]2)CC1 (single isomer, unassigned) [Compound 8]",< 20
8,"Cc1cc(-n2nc3c(c2-n2ccn(-c4ccc5c(cnn5C)c4F)c2=O)[C@H](C)N(C(=O)c2cc4cc([C@H]5CCOC(C)(C)C5)ccn4c2C2(c4noc(=O)[nH]4)CC2)CC3)cc(C)c1F (single isomer, unassigned) [Compound 9]",20 to 100
9,"C[C@H]1c2c(nn(-c3ccc(F)cc3)c2-n2ccn(-c3ccc4c(cnn4C)c3F)c2=O)CCN1C(=O)c1cn2cc([C@@H]3CCOC(C)(C)C3)ccc2c1C1(c2noc(=O)[nH]2)CC1 (single isomer, unassigned) [Compound 11]",< 20
10,"C[C@H]1c2c(nn(-c3ccc(F)c(Cl)c3)c2-n2ccn(-c3ccc4c(cnn4C)c3F)c2=O)CCN1C(=O)c1cn2cc([C@@H]3CCOC(C)(C)C3)ccc2c1C1(c2noc(=O)[nH]2)CC1 (single isomer, unassigned) [Compound 12]",< 20
11,"Cc1cc(-n2nc3c(c2-n2ccn(-c4ccc5c(cnn5C)c4F)c2=O)[C@H](C)N(C(=O)c2cn4cc([C@@H]5CCOC(C)(C)C5)ccc4c2C2(c4noc(=O)[nH]4)CC2)CC3)ccc1F (single isomer, unassigned) [Compound 13]",< 20

# More lines, now with the values ahead:
row,EC50 [nM],Structure (SMILES)
1,20 to 100,"Cc1cc(-n2nc3c(c2-n2ccn(-c4ccc5c(cnn5C)c4F)c2=O)[C@H](C)N(C(=O)c2cc4cc(C5CCOC(C)(C)C5)ccc4n2-c2cccc(-c4noc(=O)[nH]4)c2)CC3)cc(C)c1F (mixture of isomers) [Compound 30, 3-(3-(5-(2,2-dimethyltetrahydro-2H-pyran-4-yl)-2-((S)-3-(3-(4-fluoro-1-methyl-1H-indazol-5-yl)-2-oxo-2,3-dihydro-1H-imidazol-1-yl)-2-(4-fluoro-3,5-dimethylphenyl)-4-methyl-4,5,6,7-tetrahydro-2H-pyrazolo[4,3-c]pyridine-5-carbonyl)-1H-indol-1-yl)phenyl)-1,2,4-oxadiazol-5(4H)-one]"
2,> 100,"Cc1cc(-n2nc3c(c2-n2ccn(-c4ccc5c(cnn5C)c4F)c2=O)CN(C(=O)c2cc4cc(C5CCOC(C)(C)C5)ccc4n2Cc2nnc(O)s2)CC3)cc(C)c1F (racemic) [Compound 35, 1-(5-(5-(2,2-dimethyltetrahydro-2H-pyran-4-yl)-1-((5-hydroxy-1,3,4-thiadiazol-2-yl)methyl)-1H-indole-2-carbonyl)-2-(4-fluoro-3,5-dimethylphenyl)-4,5,6,7-tetrahydro-2H-pyrazolo[4,3-c]pyridin-3-yl)-3-(4-fluoro-1-methyl-1H-indazol-5-yl)-1,3-dihydro-2H-imidazol-2-one]"
3,> 100,"Cc1cc(-n2nc3c(c2-n2ccn(-c4ccc5c(cnn5C)c4F)c2=O)CN(C(=O)c2cc4cc(C5CCOC(C)(C)C5)ccc4n2Cc2cc(O)no2)CC3)cc(C)c1F (racemic) [Compound 36, 1-(5-(5-(2,2-dimethyltetrahydro-2H-pyran-4-yl)-1-((3-hydroxyisoxazol-5-yl)methyl)-1H-indole-2-carbonyl)-2-(4-fluoro-3,5-dimethylphenyl)-4,5,6,7-tetrahydro-2H-pyrazolo[4,3-c]pyridin-3-yl)-3-(4-fluoro-1-methyl-1H-indazol-5-yl)-1,3-dihydro-2H-imidazol-2-one]"
4,> 100,"Cc1cc(-n2nc3c(c2-n2ccn(-c4ccc5c(cnn5C)c4F)c2=O)CN(C(=O)c2cc4cc(C5CCOC(C)(C)C5)ccc4n2Cc2cc(O)ns2)CC3)cc(C)c1F (racemic) [Compound 42, 1-(5-(5-(2,2-dimethyltetrahydro-2H-pyran-4-yl)-1-((3-hydroxyisothiazol-5-yl)methyl)-1H-indole-2-carbonyl)-2-(4-fluoro-3,5-dimethylphenyl)-4,5,6,7-tetrahydro-2H-pyrazolo[4,3-c]pyridin-3-yl)-3-(4-fluoro-1-methyl-1H-indazol-5-yl)-1,3-dihydro-2H-imidazol-2-one]"
5,< 20,"Cc1cc(-n2nc3c(c2-n2ccn(-c4ccc5c(cnn5C)c4F)c2=O)[C@H](C)N(C(=O)c2cc4cc(C5CCOC(C)(C)C5)ccc4n2C2(c4nnc(O)s4)CC2)CC3)cc(C)c1F (mixture of isomers) [Compound 47, 1-((4S)-5-(5-(2,2-dimethyltetrahydro-2H-pyran-4-yl)-1-(1-(5-hydroxy-1,3,4-thiadiazol-2-yl)cyclopropyl)-1H-indole-2-carbonyl)-2-(4-fluoro-3,5-dimethylphenyl)-4-methyl-4,5,6,7-tetrahydro-2H-pyrazolo[4,3-c]pyridin-3-yl)-3-(4-fluoro-1-methyl-1H-indazol-5-yl)-1,3-dihydro-2H-imidazol-2-one]"
6,< 20,"Cc1cc(-n2nc3c(c2-n2ccn(-c4ccc5c(cnn5C)c4F)c2=O)[C@H](C)N(C(=O)c2cc4cc(C5CCOC(C)(C)C5)ccc4n2C2(c4nc(O)ns4)CC2)CC3)cc(C)c1F (mixture of isomers) [Compound 48, 1-((4S)-5-(5-(2,2-dimethyltetrahydro-2H-pyran-4-yl)-1-(1-(3-hydroxy-1,2,4-thiadiazol-5-yl)cyclopropyl)-1H-indole-2-carbonyl)-2-(4-fluoro-3,5-dimethylphenyl)-4-methyl-4,5,6,7-tetrahydro-2H-pyrazolo[4,3-c]pyridin-3-yl)-3-(4-fluoro-1-methyl-1H-indazol-5-yl)-1,3-dihydro-2H-imidazol-2-one]"
7,< 20,"Cc1cc(-n2nc3c(c2-n2ccn(-c4ccc5c(cnn5C)c4F)c2=O)[C@H](C)N(C(=O)c2cc4cc(C5CCOC(C)(C)C5)ccc4n2-c2ccccc2C(=O)O)CC3)cc(C)c1F (mixture of isomers) [Compound 54, 2-(5-(2,2-dimethyltetrahydro-2H-pyran-4-yl)-2-((S)-3-(3-(4-fluoro-1-methyl-1H-indazol-5-yl)-2-oxo-2,3-dihydro-1H-imidazol-1-yl)-2-(4-fluoro-3,5-dimethylphenyl)-4-methyl-4,5,6,7-tetrahydro-2H-pyrazolo[4,3-c]pyridine-5-carbonyl)-1H-indol-1-yl)benzoic acid]"
8,> 100,"Cc1cc(-n2nc3c(c2-n2ccn(-c4ccc5c(cnn5C)c4F)c2=O)[C@H](C)N(C(=O)c2cc4cc(C5CCOC(C)(C)C5)ccc4n2C2(CNS(C)(=O)=O)CC2)CC3)cc(C)c1F (mixture of isomers) [Compound 64, N-((1-(5-(2,2-dimethyltetrahydro-2H-pyran-4-yl)-2-((S)-3-(3-(4-fluoro-1-methyl-1H-indazol-5-yl)-2-oxo-2,3-dihydro-1H-imidazol-1-yl)-2-(4-fluoro-3,5-dimethylphenyl)-4-methyl-4,5,6,7-tetrahydro-2H-pyrazolo[4,3-c]pyridine-5-carbonyl)-1H-indol-1-yl)cyclopropyl)methyl)methanesulfonamide]"
9,20 to 100,"Cc1cc(-n2nc3c(c2-n2ccn(-c4ccc5c(cnn5C)c4F)c2=O)[C@H](C)N(C(=O)c2cn4cc([C@@H]5CCOC(C)(C)C5)ccc4c2[C@]2(c4noc(=O)[nH]4)C[C@@H]2C)CC3)cc(C)c1F (single isomer, unassigned) [Compound 6]"
